Measurements taken from paper PMC9823356, “Inhibition of Cancer Cell Proliferation and Bacterial Growth by Silver(I) Complexes Bearing a CH3-Substituted Thiadiazole-Based Thioamide” (Molecules, 2023).

Columns and labels:
[1] = system: calf-thymus (CT) DNA; test: DNA viscosity measurements; format: binding
Procedure: All measurements were performed at room temperature. The obtained data are presented as (η/η0)^1/3 versus r where η is the viscosity of DNA in the presence of the studied compound, η0 is the viscosity of DNA alone in buffer solution and r = [complex]/[DNA]. DNA-length (L/L0), according to the equation L/L0 = (η/η0)^1/3. […] In the particular case of intercalation, an increase in the separation distance of the DNA-base pairs can be induced in order to host the inserting compound resulting in an increase of the relative DNA-viscosity. On the other hand, when a compound binds to DNA-grooves via non-classic intercalation (i.e., electrostatic interaction or external groove-binding) the DNA-viscosity may show a slight decrease or remain unchanged, because of a bend of DNA double helix which leads to shortening of DNA length.

[2] = system: EB–DNA conjugate (CT DNA); test: EB-DNA competitive binding, fluorescence quenching; parameters: species or system calf
Text: The potential EB-displacing ability of the compounds was studied by a stepwise addition of a compound’s solution into the EB–DNA solution. The resultant changes were monitored by recording the variation of fluorescence emission spectra with excitation wavelength at 540 nm. […] The Stern-Volmer constant (KSV, in M^−1) is used to evaluate the quenching efficiency for each compound according to the Stern-Volmer equation (Equation (2)):(2) Io/I=1+kqτ0[Q]=1+KSV[Q] where Io and I are the emission intensities of the EB–DNA solution in the absence and the presence of the quencher, respectively, [Q] is the concentration of the quencher, τo = the average lifetime of the emitting system without the quencher and kq = the quenching constant. KSV may be obtained from the Stern-Volmer plots by the slope of the diagram Io/I versus [Q]. Taking τo = 23 ns as the fluorescence lifetime of the EB–DNA system, the quenching constants (kq, in M^−1s^−1) of the compounds can be determined according to Equation (3):KSV = kqτo(3)

[3] = system: calf-thymus (CT) DNA; test: CT DNA interaction by UV-visible spectroscopy; conditions: upon addition of CT DNA
Procedure: The UV-visible spectra of CT DNA solution (1.5 × 10^−4 M) were recorded in the presence of each compound at diverse [compound]/[DNA] mixing ratios (r).

[4] = target: T1, HSA (human serum albumin) (Homo sapiens, UniProt P02768); test: Serum albumin tryptophan fluorescence quenching; format: binding
T1 construct: purchased
Procedure: The serum albumin (SA) binding study was performed by tryptophan fluorescence quenching experiments using BSA (3 μM) or HSA (3 μM) in buffer (containing 1 mM trisodium citrate and 150 mM NaCl at pH 7.0).
The Stern-Volmer and Scatchard graphs are used in order to study the interaction of a quencher with serum albumins. According to Stern-Volmer quenching equation (Equation (2)), where Io = the initial tryptophan fluorescence intensity of SA, I = the tryptophan fluorescence intensity of SA after the addition of the quencher, kq = the quenching constant, KSV = the Stern-Volmer constant, τo = the average lifetime of SA without the quencher, [Q] = the concentration of the quencher. KSV (M^–1) can be obtained by the slope of the diagram Io/I versus [Q], and subsequently the quenching constant (kq, M^–1s^–1) is calculated from Equation (3) with τ0 = 10^–8 s as fluorescence lifetime of tryptophan in SA.
From the Scatchard equation (5) ΔΙ/Ιο/Q=nK−kΔΙ/Ιο where, n is the number of binding sites per albumin and K is the SA-binding constant, K (in M^–1) is calculated from the slope in plots ΔΙ/Ιο/Q versus ΔΙ/Ιο and n is given by the ratio of y intercept to the slope.

T1 sequence (P02768 25-609): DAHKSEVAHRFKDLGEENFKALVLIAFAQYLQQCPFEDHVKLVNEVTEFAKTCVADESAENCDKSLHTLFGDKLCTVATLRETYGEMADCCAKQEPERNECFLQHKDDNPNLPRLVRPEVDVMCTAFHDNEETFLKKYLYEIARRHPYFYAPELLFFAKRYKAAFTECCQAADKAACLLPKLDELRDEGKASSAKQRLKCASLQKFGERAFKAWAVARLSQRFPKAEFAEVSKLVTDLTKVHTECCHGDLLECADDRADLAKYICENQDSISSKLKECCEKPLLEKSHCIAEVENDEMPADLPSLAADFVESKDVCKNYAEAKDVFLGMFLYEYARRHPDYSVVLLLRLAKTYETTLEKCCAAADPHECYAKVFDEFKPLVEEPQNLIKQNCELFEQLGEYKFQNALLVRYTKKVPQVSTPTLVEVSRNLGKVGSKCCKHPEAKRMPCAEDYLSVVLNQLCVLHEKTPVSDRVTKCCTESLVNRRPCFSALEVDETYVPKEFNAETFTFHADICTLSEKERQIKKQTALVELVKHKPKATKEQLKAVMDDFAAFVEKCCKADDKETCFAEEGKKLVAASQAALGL

## [Ag(mtdztH)(dppe)(NO3)]n [Compound 4]
[1]; higher concentrations, r > 0.15
  relative DNA viscosity change: moderate increase
[1]; low concentrations, up to r = 0.15
  relative DNA viscosity change: remained almost unchanged
[2]
  EB-DNA Stern–Volmer constant KSV: 5.68 (±0.20) × 10^4 M^−1
[2]; λex 540 nm
  EB–DNA fluorescence quenching ΔI/Iο: 27.6%
[3]; DMSO solution, + hyperchromism, – hypochromism
  percentage of hyper-/hypochromism ΔA/Aο: –13%
[3]
  hypochromism (intensity decrease) of absorption band at 272 nm: up to 13%
[4]; Scatchard equation
  binding constant K: 7.21 (±0.53) × 10^4 M^−1
[4]; λex 295 nm, λem 338 nm
  HSA emission quenching: 23%
[4]; τ0 = 10^–8 s
  emission-quenching constant kq: 5.11 (±0.37) × 10^11 M^−1s^−1
